Measured values published in the supplement of paper PMC10307832.

Assays:
Experiment in all cases: relative viability (nuclei count vs DMSO), 5 days (fraction); higher = more cells survive
Carfilzomib + Dasatinib = compound: CC(C)C[C@H](NC(=O)[C@H](CCc1ccccc1)NC(=O)CN1CCOCC1)C(=O)N[C@@H](Cc1ccccc1)C(=O)N[C@@H](CC(C)C)C(=O)[C@@]1(C)CO1 [Carfilzomib] + Cc1nc(Nc2ncc(C(=O)Nc3c(C)cccc3Cl)s2)cc(N2CCN(CCO)CC2)n1 [Dasatinib] (partner 0.075 µM)
In short: (§1)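 Values are medians from duplicate plates. Each reflects relative viability, defined as the nuclei count of treated wells over that of vehicle wells. Lung cancer cell lines in 1536-well plates were pin-tool dosed one day after seeding with one drug alone or with a fixed anchor-drug dose plus five library-drug doses (not always all listed) in √10 steps, then fixed, stained and imaged at 4× after 5 days.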

Carfilzomib + Vorinostat = compound: CC(C)C[C@H](NC(=O)[C@H](CCc1ccccc1)NC(=O)CN1CCOCC1)C(=O)N[C@@H](Cc1ccccc1)C(=O)N[C@@H](CC(C)C)C(=O)[C@@]1(C)CO1 [Carfilzomib] + O=C(CCCCCCC(=O)Nc1ccccc1)NO [Vorinostat] (partner 1 µM)
In short: as §1

Olaparib + AZD7762 = compound: O=C(c1cc(Cc2n[nH]c(=O)c3ccccc23)ccc1F)N1CCN(C(=O)C2CC2)CC1 [Olaparib] + NC(=O)Nc1cc(-c2cccc(F)c2)sc1C(=O)N[C@H]1CCCNC1 [AZD7762] (partner 0.2 µM)
In short: as §1

Olaparib + Vorinostat = compound: O=C(c1cc(Cc2n[nH]c(=O)c3ccccc23)ccc1F)N1CCN(C(=O)C2CC2)CC1 [Olaparib] + O=C(CCCCCCC(=O)Nc1ccccc1)NO [Vorinostat] (partner 1 µM)
In short: as §1

Cell Line | relative viability (Carfilzomib + Dasatinib; first compound 0.001 µM) | relative viability (Carfilzomib + Dasatinib; first compound 0.003162 µM) | relative viability (Carfilzomib + Dasatinib; first compound 0.01 µM) | relative viability (Carfilzomib + Dasatinib; first compound 0.03162 µM) | relative viability (Carfilzomib + Dasatinib; first compound 0.1 µM) | relative viability (Carfilzomib + Vorinostat; first compound 0.001 µM) | relative viability (Carfilzomib + Vorinostat; first compound 0.003162 µM) | relative viability (Carfilzomib + Vorinostat; first compound 0.01 µM) | relative viability (Carfilzomib + Vorinostat; first compound 0.03162 µM) | relative viability (Carfilzomib + Vorinostat; first compound 0.1 µM) | relative viability (Olaparib + AZD7762; first compound 0.08 µM) | relative viability (Olaparib + AZD7762; first compound 0.253 µM) | relative viability (Olaparib + AZD7762; first compound 2.53 µM) | relative viability (Olaparib + AZD7762; first compound 8 µM) | relative viability (Olaparib + Vorinostat; first compound 0.08 µM) | relative viability (Olaparib + Vorinostat; first compound 0.253 µM) | relative viability (Olaparib + Vorinostat; first compound 2.53 µM) | relative viability (Olaparib + Vorinostat; first compound 8 µM)
NCI-H3122 | 0.868 | 0.925 | 0.909 | 0.69 | 0.162 | 0.841 | 0.819 | 1.06 | 0.747 | 0.329 | 1.03 | 0.945 | 0.908 | 0.559 | 1.17 | 0.932 | 0.986 | 0.789
PC-3 [JPC-3] | 0.914 | 0.972 | 0.996 | 0.597 | 0.428 | 0.784 | 0.808 | 1.1 | 0.475 | 0.229 | 0.887 |  | 0.866 | 0.926 | 0.923 |  | 0.943 | 0.942
PC-14 | 0.311 | 0.305 | 0.241 | 0.0289 | 0.0424 | 0.71 | 0.754 | 0.228 | 0.0369 | 0.0418 | 0.4 | 0.334 | 0.355 | 0.205 | 0.889 | 0.579 | 0.709 | 0.34
RERF-LC-KJ | 0.792 | 0.82 | 0.867 | 0.388 | 0.184 | 0.7 | 0.683 | 0.676 | 0.392 | 0.242 | 1.11 | 0.825 | 0.883 | 1.08 | 0.79 | 0.644 | 0.748 | 0.633
SW 900 | 0.561 | 0.467 | 0.137 | 0.141 | 0.137 |  | 0.469 | 0.198 | 0.168 | 0.188 | 0.652 | 0.637 | 0.584 | 0.555 | 0.462 | 0.446 | 0.443 | 0.515
